What was measured:
[1] = system: endometrial stromal fibroblasts (ESFs); assay: Regulation of steroidogenic enzymes in ESFs by cAMP and/or E2/P4, Q-PCR; format: cell-based, human
Description: ESFs were isolated from endometrial biopsies from 15 women with and 7 women without endometriosis. […] IGFBP1 and PRL protein secretion was measured by ELISA. […] Purity of ESF populations at passage 2 was evaluated by immunohistochemistry using cytokeratin, vimentin and CD45 antibodies. Endometrial tissue biopsies were obtained from mid-secretory phase endometrium from 5 women without and 5 women with severe endometriosis.

ERK = ERK 1/2 phosphorylation in cultured eutopic endometrial stromal cells; format: cell-based, human; conditions: eutopic endometrial stromal cells from patients with endometriosis; treatment within 60 min; level then similar to cells from patients without endometriosis
Description: Growth of ectopic endometrial tissues in the pelvic cavity, which is a hallmark of endometriosis, is associated with elevated levels of inflammatory cytokines and increased number of activated macrophages in the peritoneal environment. […] In this example, the expression of inflammatory-associated genes in cultured eutopic endometrial stromal cells from women with versus without endometriosis was examined using quantitative RT-PCR. […] Interleukin-1 beta and cyclooxygenase-2 mRNA expression were similar in cultured endometrial stromal cells from women with vs. without endometriosis. Cell proliferation was similar in eutopic endometrial stromal cells from women with versus without endometriosis when cultured in 0%, 2%, or 10% charcoal stripped FBS-containing medium or in the presence of insulin. Increased IL-8 production in endometriosis is accompanied by a strong increased phosphorylation of ERK ½ (P=0.04), a signaling molecule shown to activate IL-8 expression in endometrial stromal cells. […] Since phosphorylation of ERK and IL-8 expression increases cell migration and invasion of endometrial stromal cells, dysregulation of MAPK activity and IL-8 expression in the eutopic endometrial stromal cells of women with endometriosis may be associated with the pathophysiology and spread of the disease.

[2] = system: pro-MMP-3 or pro-MMP-7 secretion; conditions: in vitro treatment of endometrial tissues from women with endometriosis; cited from earlier work
[3] = system: eutopic endometrium of women with endometriosis; conditions: cited from earlier work
TOB1 = conditions: cultured human endometrial stromal cells from women with endometriosis; cited from earlier work

Question: Which results are given for `CC(=O)[C@H]1CC[C@H]2[C@@H]3CCC4=CC(=O)CC[C@]4(C)[C@H]3CC[C@]12C` [P4, progesterone]?
Answer: Cyp17A1 (P450c17) expression ([1]; ESFs from women with vs without endometriosis): slightly down-regulated; Aromatase (Cyp19A1) regulation ([1]; ESFs, cAMP effect in women with endometriosis): not regulated; 3βHSD1 expression ([1]; P4 stimulated ESFs from women with endometriosis): Down regulation; high basal ERK phosphorylation (ERK): successfully diminished; suppression of pro-MMP-3 or pro-MMP-7 secretion [2]: fails to fully suppress; prevention of the ability of tissues to establish experimental disease in mice ([3]; endometrial tissues from women with endometriosis treated in vitro): fails to prevent

Question: Which “progesterone insensitivity of eutopic endometrium of women with endometriosis” value ([3]; endometrial cell culture and nude mouse models) does the source give for `Cn1c(C#N)ccc1-c1ccc2c(c1)C(C)(C)OC(=S)N2` [tanaproget] here?
Answer: could be corrected

Question: For “IL-1β: a central cytokine in endometriosis”, which TOB1 expression (TOB1) is on record?
Answer: reduced TOB1 expression

Reference: patent US11001892B2, “Methods of diagnosing endometriosis” (The Regents of the University of California, priority 2007, dated 2021)
